Reference: patent US9856230B2 (University of Sunderland, priority 2012, dated 2018)

Assays:
in vitro = settings: human, Viable Cells (%)
Description: (§1) To determine if the analogues were causing apoptosis or necrosis, an Annexin V-Pe assay was used. […] The annexin V is attached to a fluorescent probe that is used for detection by flow cytometry. […] The assay is also used in conjugation with 7-aminoactinomycin D (7-AAD). […] As the plasma membrane becomes increasingly permeable, 7-AAD can move readily across the cell membrane and bind to cellular DNA, thereby providing a way of identifying cells that have lost their membrane integrity; however, when the cell is viable or undergoing early stages of apoptosis, it is impermeable to 7-AAD.

[1] = target: T1, Trx system (thioredoxin/thioredoxin reductase) (Homo sapiens, UniProt Q16881); experiment: Thioredoxin/thioredoxin reductase insulin reduction assay; type: biochemical
T1 sequence (Q16881 151-649 limits assumed): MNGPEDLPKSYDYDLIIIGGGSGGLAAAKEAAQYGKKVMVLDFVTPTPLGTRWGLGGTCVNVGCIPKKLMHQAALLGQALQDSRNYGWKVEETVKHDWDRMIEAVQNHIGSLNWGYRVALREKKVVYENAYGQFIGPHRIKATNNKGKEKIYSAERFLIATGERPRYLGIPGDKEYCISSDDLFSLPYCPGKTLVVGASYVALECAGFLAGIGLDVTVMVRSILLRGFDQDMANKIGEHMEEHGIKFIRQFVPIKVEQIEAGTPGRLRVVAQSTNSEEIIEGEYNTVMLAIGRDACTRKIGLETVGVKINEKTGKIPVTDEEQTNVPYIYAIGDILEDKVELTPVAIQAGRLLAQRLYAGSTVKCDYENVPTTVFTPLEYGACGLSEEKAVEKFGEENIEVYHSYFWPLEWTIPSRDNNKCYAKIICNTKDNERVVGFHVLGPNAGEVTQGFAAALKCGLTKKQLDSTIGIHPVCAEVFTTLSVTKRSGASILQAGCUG
Protocol: Thioredoxin/thioredoxin reductase inhibition was measured using the insulin reduction assay (Stevens, M. F. G., Pallis, M., Bradshaw, T. D., Westwell, A. D., Grundy, M., Russell, N, “Induction of apoptosis without redox catastrophe by thioredoxin-inhibitory compounds”, Biochem. Pharmacol. (2003) 66, 1695-1705). […] The first part of the assay involves TrxR reducing oxidized Trx via NADPH. The reduced Trx then reduces disulfide bonds in the insulin, leaving exposed thiol groups, as summarized by the Trx reaction scheme.
The addition of dithionitrobenzoic acid (DTNB) to the free thiol groups of the insulin cleaves the disulfide bond in the DTNB which gives rise to a yellow colour (DTNB reaction scheme). The yellow colour is observed under basic conditions due to the conjugation of electrons between the thiolate anion and the nitro group of thionitrobenzoic acid (TNB). The level of thioredoxin/thioredoxin reductase inhibitory activity is […] proportional to the intensity of the yellow colour.
Addition of DTNB to reduced insulin produces thionitrobenzoic acid (TNB) and a mixed insulin disulfide. DTNB has very little absorbance, but under mild basic conditions TNB forms an anion that gives an intense yellow colour at 412 nm.
Synthesized compounds were tested for thioredoxin/thioredoxin reductase activity using the thioredoxin/thioredoxin reductase insulin assay described above under the heading “Assays”. The compounds were also tested for antiproliferative activity using the MTT assay described above under the heading “Assays”. Theoretical C log P values for the compounds were calculated using ChemDraw. The C log P of a compound is the logarithm of the compound's partition coefficient between n-octanol and water log(coctanol/cwater) and represents a measure of the compound's hydrophilicity and hydrophobicity. […]

[2] = tested on: HPV-16 immortalized keratinocyte cell line (CCD-1106 KERTr); experiment: cells; type: cell-based; settings: Homo sapiens; CCD-1106 KERTr keratinocytes; read-out: MTT GI50;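 also: growth inhibition read as spectrophotometric formazan colour from mitochondrial dehydrogenase cleavage of MTT, proportional to viable cell number, modelling psoriatic hyperproliferation, lower values mean stronger antiproliferative activity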
Description: The assay is based on the ability of a mitochondrial dehydrogenase enzyme to cleave the tetrazolium rings of the yellow MTT to form dark blue formazan crystals (MTT reaction scheme). These crystals are mostly impermeable to cell membranes and, consequently, they accumulate in healthy viable cells. The addition of detergent solubilizes the cells, which results in the liberation of purple formazan crystals. The number of viable cells is directly proportional to the level of purple formazan produced. This colour change can be measured by a spectrophotometer enabling quantification of changes in cellular proliferation. Compound activity measured by the MTT assay (or other proliferation related assay) may be given as a GI50 value.
A human papilloma virus-16 (HPV-16) immortalized keratinocyte cell line (CCD-1106 KERTr) was used in the MTT cell viability assay.
Antiproliferative activity is indicated by the MTT GI50 (μM), where a lower value indicates higher activity.

human T-cells [3] = experiment: CFSE proliferation assay; type: cell-based; settings: 2000 ng per mL
Description: Carboxyfluorescein diacetate succinimidyl ester (56a) (CFSE) is a cell permeable compound which readily enters the cell, upon which, the ester group is cleaved by esterases to produce a fluorescent compound (known as carboxyfluorescein succinimidyl ester (56b)) that is less cell permeable (see CFSE reaction scheme). As cells divide, the carboxyfluorescein succinimidyl ester (56b) is split equally between the daughter cells, which results in reduced carboxyfluorescein succinimidyl ester (56b) signal detection with each subsequent cell division (FIG. 2). The attenuation of the signal gives an indication of the proliferative ability of the cells.
For a compound to show good antiproliferative properties in the CFSE assay, the majority of the cells should remain in the parent state (as per division 0 in FIG. 2). […] As cell division occurs, the carboxyfluorescein succinimidyl ester (56b) is split equally between daughter cells, which results in attenuated signal detection.
CFSE labeled T-cells were treated with compound (33f) or control (no compound added). In the control experiment the majority of cells reached the fifth division (proliferation index of 5.62). […] The PI is the sum of the cells in all generations divided by the calculated number of the original parent cells.

human T-cells [4] = experiment: Annexin V-Pe assay (apoptosis/necrosis)
Description: as §1

human T-cells [5] = tested on: human T-cells
Description: as §1

**Q.** What does the source list for `Cc1ccc(S(=O)(=O)Nc2ccc(NC(=O)c3ccco3)cc2NS(=O)(=O)c2ccc(C)cc2)cc1` [Compound (33f), N-(3,4-bis-(toluene-4-sulfonylamino)phenyl)-2-furamide]?
**A.** viability (in vitro): 37%; inhibition at 500 µM ([1]; compound at 500 μM, read-out: Inhib. (%) Trx Syst. at 500 μM): 93.7%; IC50 ([1]; insulin reduction assay, read-out: Trx System IC50): 37 µM; GI50 [2]: 10.8 µM; division state of CFSE labeled T-cells (human T-cells [3]; control: majority reached the fifth division): the majority of cells remained in the parent state; proliferation index (PI) (human T-cells [3]; CFSE labeled T-cells, control 5.62): 1.36; Early Apoptotic Cells (%) (human T-cells [4]; annexin V positive, 7-AAD negative, control 29): 31%; Late Apoptotic/Necrotic Cells (%) (human T-cells [4]; stain with both reagents, control 15): 13%; Viable Cells (%) (human T-cells [5]): 46%
